Experiment [1] relates to kochia. Description: Test C pre-/postemergence herbicide test. It counts as in vivo, Kochia scoparia. A digest of the protocol:
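Plants grown and held in a greenhouse for 13 to 15 days post-spray, then rated 0–100 by visual comparison with controls. Pre treatments targeted seeds in loam and sand; post treatments targeted 1- to 4-leaf plants in peat-based potting medium.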

Another experiment has as its system morningglory. Description: Test A pre-/postemergence herbicide test. It counts as in vivo, Ipomoea spp. The note with it: for pest or weed control at 1000 g/ha: 1000 g ai/ha. A digest of the protocol: (§1)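 Approximately 10 days after treatment in the greenhouse, plants were compared with untreated controls and given a 0–100 visual injury rating. Applications: preemergence directed soil spray; postemergence on 2–10 cm plants at the one- to two-leaf stage.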

Another experiment deals with crabgrass, large. As to the kind of experiment: Test A pre-/postemergence herbicide test. Conditions: for pest or weed control at 1000 g/ha: 1000 g ai/ha. The format is in vivo, Digitaria sanguinalis. A digest of the protocol:
as §1

For another experiment, the system named is barnyardgrass. Description: Test C flooded paddy test. The format is in vivo, Echinochloa crus-galli. The note with it: Flood. A digest of the protocol: (§2)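 Plants at the 2-leaf stage in pots flooded to 3 cm were treated by applying compound directly to the paddy water, with depth held throughout. After 13 to 15 days in a greenhouse, response was rated visually against controls on a 0 (no effect) to 100 (complete control) scale.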

A further experiment relates to sedge, umbrella. As to the kind of experiment: Test C flooded paddy test. The note with it: Flood. The format is in vivo, Cyperus difformis. A digest of the protocol:
as §2

The subject of a further experiment is ducksalad. As to the kind of experiment: Test C flooded paddy test. The format is in vivo, Heteranthera limosa. Conditions: Flood. An outline of the steps:
as §2

The next experiment concerns galium. Description: Test A postemergence herbicide test. It counts as in vivo, Galium aparine. An outline of the steps:
(§3)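 Visual injury rating, 0 (no effect) to 100 (complete control), versus untreated controls ~10 days after treatment. Postemergence spray applied at one- to two-leaf stage, plants 2–10 cm tall, potted in loam soil/sand. Greenhouse-held.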

The next experiment deals with blackgrass. As to the kind of experiment: Test A postemergence herbicide test. The format is in vivo, Alopecurus myosuroides. A digest of the protocol: as §3
For experiment [2], the system named is kochia. As to the kind of experiment: Test A pre-/postemergence herbicide test. The format is in vivo, Kochia scoparia. The note with it: for Plant response rating, Kochia: 0 to 100 scale. An outline of the steps: as §1
[3] abbreviates: Postemergence, 31 g ai/ha, scale 0 (no effect) to 100 (complete control).
The mark [4] stands for this setting: Postemergence, 62 g ai/ha, scale 0 to 100 (0 no effect, 100 complete control).
The mark [5] stands for this setting: Postemergence, 125 g ai/ha, scale 0 to 100 (0 no effect, 100 complete control).
The mark [6] stands for this setting: Postemergence, 250 g ai/ha, scale 0 to 100 (0 no effect, 100 complete control).
[7] abbreviates: Preemergence, 62 g ai/ha, scale 0 to 100.
[8] abbreviates: Preemergence, 125 g ai/ha, scale 0 to 100 (0 no effect, 100 complete control).
Where [9] appears, read: 31 g ai/ha, scale of 0 to 100 where 0 is no effect and 100 is complete control, 13 to 15 days.
The mark [10] stands for this setting: 62 g ai/ha, scale of 0 to 100 where 0 is no effect and 100 is complete control, 13 to 15 days.
[11] abbreviates: 125 g ai/ha, scale of 0 to 100 where 0 is no effect and 100 is complete control, 13 to 15 days.
Where [12] appears, read: Postemergence, 125 g ai/ha, 0 to 100 scale, 0 no effect, 100 complete control.
The mark [13] stands for this setting: Postemergence, 500 g ai/ha, 0 to 100 scale (0 no effect, 100 complete control).
[14] abbreviates: Preemergence, 125 g ai/ha, visual rating on 0 to 100 scale (0 no effect, 100 complete control).
The mark [15] stands for this setting: preemergence, 500 g ai/ha, 0 to 100 scale.
Setting [16] is: 125 g ai/ha, 0 to 100 scale, 0 is no effect, 100 is complete control.
Setting [17] is: 250 g ai/ha, scale of 0 to 100 where 0 is no effect and 100 is complete control, 13 to 15 days.

Molecules are shown by their SMILES. Read-outs that look alike come from different tables or passages of the source.

As for `O=C1NCC(c2ccc(F)c(F)c2)C1C(=O)Nc1cccc(F)c1F` (stereo not drawn) [Compound 17, N-(2,3-difluorophenyl)-4-(3,4-difluorophenyl)-2-oxo-3-pyrrolidinecarboxamide], the “Plant response rating, Kochia” value was 0 in the experiment with kochia [1] (setting [3]); 0 in the experiment with kochia [1] (setting [4]); 0 in the experiment on kochia [1] (setting [5]); 5 in the experiment with kochia [1] (setting [6]); 50 in the experiment with kochia [1] (setting [7]); 60 in the experiment with kochia [1] (setting [8]). Further, the pest or weed control at 1000 g/ha with morningglory (Ipomoea, post-emergence, 240 h, Postemergence, 0 to 100 scale (0 no effect, 100 complete control), read-out: Plant response rating, Morningglory) worked out at 0%; in the experiment on morningglory (Ipomoea, pre-emergence, 240 h, Preemergence, visual rating on 0 to 100 scale (0 no effect, 100 complete control), approx. 10 days, read-out: Plant response rating, Morningglory) it was 30%; with crabgrass, large (Digitaria sanguinalis, post-emergence, 240 h, Postemergence, 0 to 100 scale (0 no effect, 100 complete control), read-out: Plant response rating, Crabgrass, Large) it was 90%; in the experiment on crabgrass, large (Digitaria sanguinalis, pre-emergence, 240 h, Preemergence, visual rating on 0 to 100 scale (0 no effect, 100 complete control), approx. 10 days, read-out: Plant response rating, Crabgrass, Large), 90%. Also, the “Plant response rating, Barnyardgrass” value came to 0 with barnyardgrass (setting [9]); 0 in the experiment on barnyardgrass (setting [10]); 20 with barnyardgrass (setting [11]); 25 in the experiment with barnyardgrass (250 g ai/ha, scale 0 to 100). In addition, the “Plant response rating, Sedge, Umbrella” value in the experiment on sedge, umbrella (setting [9]) came out at 0; in the experiment with sedge, umbrella (setting [10]), 0; in the experiment on sedge, umbrella (setting [11]), 0; in the experiment on sedge, umbrella (250 g ai/ha, scale 0 to 100), 40. Moreover, the “Plant response rating, Ducksalad” value is reported as 40 with ducksalad (setting [9]); 80 in the experiment on ducksalad (setting [10]); 100 in the experiment with ducksalad (setting [11]); 100 in the experiment with ducksalad (250 g ai/ha, scale 0 to 100).

Turning to `O=C1NCC(c2ccc(Cl)c(F)c2)C1C(=O)Nc1cccc(F)c1F` (stereo not drawn) [Compound 52], the “Plant response rating, Kochia” value in the experiment with kochia [1] (setting [3]) is on record as 30; in the experiment with kochia [1] (setting [4]), 35; in the experiment with kochia [1] (setting [5]), 40; in the experiment on kochia [1] (setting [6]), 50; in the experiment on kochia [1] (setting [7]), 10; with kochia [1] (setting [8]) it was 15. Moreover, the “Plant response rating, Morningglory” value with morningglory (setting [12]), in the experiment on morningglory (setting [13]) and in the experiment with morningglory (setting [15]) was 0 in each case. The “Morningglory plant response rating” value in the experiment with morningglory (setting [14]) stood at 0. For the same compound, the “Plant response rating, Crabgrass, Large” value in the experiment on crabgrass, large (setting [12]) came out at 80; in the experiment on crabgrass, large (setting [13]), 80; with crabgrass, large (setting [15]), 90. Further, the “Crabgrass, Large plant response rating” value in the experiment on crabgrass, large (setting [14]) is 90. Also, the “Plant response rating, Barnyardgrass” value in the experiment on barnyardgrass (setting [9]) turned out to be 0; in the experiment with barnyardgrass (setting [10]), 0; in the experiment with barnyardgrass (setting [11]), 0; in the experiment with barnyardgrass (250 g ai/ha, scale 0 to 100), 0. For the same compound, the “Plant response rating, Sedge, Umbrella” value with sedge, umbrella (setting [9]) is reported as 0; in the experiment on sedge, umbrella (setting [10]), 40; in the experiment on sedge, umbrella (setting [11]) it was 50; with sedge, umbrella (250 g ai/ha, scale 0 to 100) it was 75. Besides, the “Plant response rating, Ducksalad” value came to 40 with ducksalad (setting [9]); 40 in the experiment with ducksalad (setting [10]); 75 with ducksalad (setting [11]); 95 in the experiment on ducksalad (250 g ai/ha, scale 0 to 100).

On to `O=C1NCC(c2ccc(C(F)(F)F)cc2)C1C(=O)Nc1cccc(F)c1F` (stereo not drawn) [Compound 80, N-(2,3-difluorophenyl)-2-oxo-4-[4-(trifluoromethyl)phenyl]-3-pyrrolidinecarboxamide], for which the “Plant response rating, Kochia” value in the experiment with kochia [1] (setting [3]) is reported as 30; in the experiment with kochia [1] (setting [4]), 55; with kochia [1] (setting [5]) it was 65; in the experiment with kochia [1] (setting [6]), 65. The pest or weed control at 125 g/ha in the experiment on morningglory (Ipomoea, post-emergence, 240 h, Postemergence, 125 g ai/ha, 0 to 100 scale, 0 no effect, 100 complete control, read-out: Plant response rating, Morningglory) stood at 0%; in the experiment on crabgrass, large (Digitaria sanguinalis, post-emergence, 240 h, Postemergence, 125 g ai/ha, 0 to 100 scale, 0 no effect, 100 complete control, read-out: Plant response rating, Crabgrass, Large) it was 80%. Further, the pest or weed control at 500 g/ha in the experiment on morningglory (Ipomoea, post-emergence, 240 h, Postemergence, 500 g ai/ha, 0 to 100 scale (0 no effect, 100 complete control), read-out: Plant response rating, Morningglory) was 0%; with morningglory (Ipomoea, pre-emergence, 240 h, preemergence, 500 g ai/ha, 0 to 100 scale, read-out: Plant response rating, Morningglory) it was 0%; in the experiment on crabgrass, large (Digitaria sanguinalis, post-emergence, 240 h, Postemergence, 500 g ai/ha, 0 to 100 scale (0 no effect, 100 complete control), read-out: Plant response rating, Crabgrass, Large), 90%; in the experiment with crabgrass, large (Digitaria sanguinalis, pre-emergence, 240 h, preemergence, 500 g ai/ha, 0 to 100 scale, read-out: Plant response rating, Crabgrass, Large), 90%. Moreover, the “Morningglory plant response rating” value with morningglory (setting [14]) turned out to be 0. Further, the “Crabgrass, Large plant response rating” value with crabgrass, large (setting [14]) worked out at 90. The “Plant response rating, Barnyardgrass” value with barnyardgrass (setting [9]) is recorded as 0; with barnyardgrass (setting [10]), 0; in the experiment with barnyardgrass (setting [11]), 0; with barnyardgrass (250 g ai/ha, scale 0 to 100), 20. Also, the “Plant response rating, Sedge, Umbrella” value with sedge, umbrella (setting [9]) stood at 35; with sedge, umbrella (setting [10]), 35; in the experiment with sedge, umbrella (setting [11]), 55; with sedge, umbrella (250 g ai/ha, scale 0 to 100), 65. Further, the “Plant response rating, Ducksalad” value in the experiment on ducksalad (setting [9]) is recorded as 70; in the experiment with ducksalad (setting [10]), 70; in the experiment with ducksalad (setting [11]), 100; in the experiment on ducksalad (250 g ai/ha, scale 0 to 100), 100.

For the compound `O=C1NC[C@H](c2cccc(C(F)(F)F)c2)[C@H]1C(=O)Nc1ccccc1F` [Compound 204, (3R,4S)—N-(2-fluorophenyl)-2-oxo-4-[3-(trifluoromethyl)phenyl]-3-pyrrolidinecarboxamide], the “Plant response rating, Kochia” value is reported as 10 in the experiment with kochia [1] (Postemergence, 31 g ai/ha, scale 0 to 100 (0 no effect, 100 complete control)); 30 in the experiment with kochia [1] (Postemergence, 62 g ai/ha, scale 0 (no effect) to 100 (complete control)); 40 in the experiment on kochia [1] (setting [5]); 40 in the experiment with kochia [1] (setting [6]); 0 in the experiment on kochia [2] (125 g ai/ha, visual rating, 0 no effect, 100 complete control, approximately 10 days, preemergence); 20 in the experiment on kochia [2] (Postemergence, 125 g ai/ha, 0 is no effect, 100 is complete control). Further, in the experiment on kochia [2] (preemergence, 500 g ai/ha, 0 is no effect and 100 is complete control), the “Plant response rating, Kochia” value is listed as 80. Besides, in the experiment with galium (setting [16]), the “Plant response rating, Galium” value turned out to be 50. The “Galium plant response rating (0 to 100 scale, 0 is no effect, 100 is complete control)” value in the experiment on galium (500 g ai/ha) turned out to be 60. Moreover, the “Plant response rating, Barnyardgrass” value amounted to 50 in the experiment with barnyardgrass (setting [11]); 70 in the experiment on barnyardgrass (setting [17]); 75 in the experiment with barnyardgrass (500 g ai/ha, scale 0 to 100); 80 in the experiment on barnyardgrass (1000 g ai/ha, scale 0 to 100). In addition, the “Plant response rating, Sedge, Umbrella” value in the experiment with sedge, umbrella (setting [11]) stood at 0; in the experiment on sedge, umbrella (setting [17]), 0; in the experiment on sedge, umbrella (500 g ai/ha, scale 0 to 100), 0; in the experiment with sedge, umbrella (1000 g ai/ha, scale 0 to 100), 0. In the experiment with blackgrass (setting [16]), the “Plant response rating, Blackgrass” value is reported as 70. In the experiment with blackgrass (500 g ai/ha), the “Blackgrass plant response rating (0 to 100 scale, 0 is no effect, 100 is complete control)” value is reported as 80. Besides, the “Plant response rating, Ducksalad” value with ducksalad (setting [11]) was 50; in the experiment with ducksalad (setting [17]), 95; with ducksalad (500 g ai/ha, scale 0 to 100), 100; in the experiment on ducksalad (1000 g ai/ha, scale 0 to 100), 100. Besides, in the experiment on kochia [2] (Postemergence, 500 g ai/ha), the “Kochia plant response rating (0 to 100 scale, 0 is no effect, 100 is complete control)” value is given as 60.

The values are drawn from patent US10294202B2, “Pyrrolidinones as herbicides” (FMC Corporation, priority 2013, dated 2019).
